Test results taken from PubChem BioAssay (NCI).
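GI50 marks 50% less growth. Definition used: TGI = concentration required for complete inhibition of growth.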

Key:
Assay in all cases: NCI tumour cell line growth inhibition, 384-well format
LOX IMVI melanoma = test system: LOX IMVI melanoma
MDA-MB-435 melanoma = test system: MDA-MB-435 melanoma
HOP-92 NSCLC = test system: HOP-92 NSCLC
SK-MEL-28 melanoma = test system: SK-MEL-28 melanoma
A498 renal = test system: A498 renal
MALME-3M melanoma = test system: MALME-3M melanoma
PC-3 prostate = test system: PC-3 prostate
U251 glioblastoma = test system: U251 glioblastoma
786-0 renal = test system: 786-0 renal
MDA-MB-231 breast = test system: MDA-MB-231 breast
BT-549 breast = test system: BT-549 breast
RXF 393 renal = test system: RXF 393 renal
SF-268 CNS = test system: SF-268 CNS
MOLT-4 leukemia = test system: MOLT-4 leukemia
RPMI-8226 leukemia = test system: RPMI-8226 leukemia
MCF7 breast = test system: MCF7 breast
SNB-19 CNS = test system: SNB-19 CNS
UO-31 renal = test system: UO-31 renal
HCT-116 colon = test system: HCT-116 colon
UACC-62 melanoma = test system: UACC-62 melanoma
SN12C renal = test system: SN12C renal
EKVX NSCLC = test system: EKVX NSCLC
SF-539 CNS = test system: SF-539 CNS
HL-60(TB) leukemia = test system: HL-60(TB) leukemia
KM12 colon = test system: KM12 colon
OVCAR-3 ovarian = test system: OVCAR-3 ovarian
CAKI-1 renal = test system: CAKI-1 renal
SF-295 CNS = test system: SF-295 CNS
NCI-H322M lung = test system: NCI-H322M lung
NCI-H226 lung = test system: NCI-H226 lung
DU-145 prostate = test system: DU-145 prostate
NCI-H460 NSCLC = test system: NCI-H460 NSCLC
ACHN renal = test system: ACHN renal
T-47D breast = test system: T-47D breast
A549 NSCLC = test system: A549 NSCLC
OVCAR-4 ovarian = test system: OVCAR-4 ovarian
OVCAR-5 ovarian = test system: OVCAR-5 ovarian
SW-620 colon = test system: SW-620 colon
SNB-75 CNS = test system: SNB-75 CNS
HCC-2998 colon = test system: HCC-2998 colon
SK-MEL-5 melanoma = test system: SK-MEL-5 melanoma
MDA-MB-468 breast = test system: MDA-MB-468 breast
NCI/ADR-RES ovarian = test system: NCI/ADR-RES ovarian
NCI-H522 lung = test system: NCI-H522 lung
HCT-15 colon = test system: HCT-15 colon
M14 melanoma = test system: M14 melanoma
UACC-257 melanoma = test system: UACC-257 melanoma
TK-10 renal = test system: TK-10 renal
HS 578T breast = test system: HS 578T breast
CCRF-CEM leukemia = test system: CCRF-CEM leukemia
HT29 colon = test system: HT29 colon
OVCAR-8 ovarian = test system: OVCAR-8 ovarian
IGROV1 ovarian = test system: IGROV1 ovarian
SK-OV-3 ovarian = test system: SK-OV-3 ovarian
COLO 205 colon = test system: COLO 205 colon
HOP-62 NSCLC = test system: HOP-62 NSCLC
SR leukemia = test system: SR leukemia
NCI-H23 lung = test system: NCI-H23 lung

Compound: CCN(c1cc(-c2ccc(CN3CCOCC3)cc2)cc(C(=O)NCc2c(C)cc(C)[nH]c2=O)c1C)C1CCOCC1
- GI50 (LOX IMVI melanoma): > 51.5 µM
- TGI (LOX IMVI melanoma): > 100 µM
- GI50 (MDA-MB-435 melanoma): > 100 µM
- TGI (MDA-MB-435 melanoma): > 100 µM
- GI50 (HOP-92 NSCLC): > 90.3 µM
- TGI (HOP-92 NSCLC): > 100 µM
- GI50 (SK-MEL-28 melanoma): > 100 µM
- TGI (SK-MEL-28 melanoma): > 100 µM
- GI50 (A498 renal): > 81.8 µM
- TGI (A498 renal): > 100 µM
- GI50 (MALME-3M melanoma): > 100 µM
- TGI (MALME-3M melanoma): > 100 µM
- GI50 (PC-3 prostate): > 100 µM
- TGI (PC-3 prostate): > 100 µM
- GI50 (U251 glioblastoma): > 100 µM
- TGI (U251 glioblastoma): > 100 µM
- GI50 (786-0 renal): > 85.4 µM
- TGI (786-0 renal): > 100 µM
- GI50 (MDA-MB-231 breast): > 100 µM
- TGI (MDA-MB-231 breast): > 100 µM
- GI50 (BT-549 breast): > 37.1 µM
- TGI (BT-549 breast): > 63.9 µM
- GI50 (RXF 393 renal): > 60.3 µM
- TGI (RXF 393 renal): > 100 µM
- GI50 (SF-268 CNS): > 100 µM
- TGI (SF-268 CNS): > 100 µM
- GI50 (MOLT-4 leukemia): 68.4 µM
- TGI (MOLT-4 leukemia): > 100 µM
- GI50 (RPMI-8226 leukemia): 1.39 µM
- TGI (RPMI-8226 leukemia): > 100 µM
- GI50 (MCF7 breast): > 100 µM
- TGI (MCF7 breast): > 100 µM
- GI50 (SNB-19 CNS): > 100 µM
- TGI (SNB-19 CNS): > 100 µM
- GI50 (UO-31 renal): > 100 µM
- TGI (UO-31 renal): > 100 µM
- GI50 (HCT-116 colon): > 77.3 µM
- TGI (HCT-116 colon): > 100 µM
- GI50 (UACC-62 melanoma): > 100 µM
- TGI (UACC-62 melanoma): > 100 µM
- GI50 (SN12C renal): > 100 µM
- TGI (SN12C renal): > 100 µM
- GI50 (EKVX NSCLC): > 100 µM
- TGI (EKVX NSCLC): > 100 µM
- GI50 (SF-539 CNS): > 100 µM
- TGI (SF-539 CNS): > 100 µM
- GI50 (HL-60(TB) leukemia): > 49.7 µM
- TGI (HL-60(TB) leukemia): > 85.8 µM
- GI50 (KM12 colon): > 100 µM
- TGI (KM12 colon): > 100 µM
- GI50 (OVCAR-3 ovarian): > 100 µM
- TGI (OVCAR-3 ovarian): > 100 µM
- GI50 (CAKI-1 renal): > 69.4 µM
- TGI (CAKI-1 renal): > 100 µM
- GI50 (SF-295 CNS): > 100 µM
- TGI (SF-295 CNS): > 100 µM
- GI50 (NCI-H322M lung): > 100 µM
- TGI (NCI-H322M lung): > 100 µM
- GI50 (NCI-H226 lung): > 100 µM
- TGI (NCI-H226 lung): > 100 µM
- GI50 (DU-145 prostate): > 100 µM
- TGI (DU-145 prostate): > 100 µM
- GI50 (NCI-H460 NSCLC): > 100 µM
- TGI (NCI-H460 NSCLC): > 100 µM
- GI50 (ACHN renal): > 100 µM
- TGI (ACHN renal): > 100 µM
- GI50 (T-47D breast): > 100 µM
- TGI (T-47D breast): > 100 µM
- GI50 (A549 NSCLC): > 76.9 µM
- TGI (A549 NSCLC): > 100 µM
- GI50 (OVCAR-4 ovarian): > 100 µM
- TGI (OVCAR-4 ovarian): > 100 µM
- GI50 (OVCAR-5 ovarian): > 100 µM
- TGI (OVCAR-5 ovarian): > 100 µM
- GI50 (SW-620 colon): > 100 µM
- TGI (SW-620 colon): > 100 µM
- GI50 (SNB-75 CNS): > 100 µM
- TGI (SNB-75 CNS): > 100 µM
- GI50 (HCC-2998 colon): > 100 µM
- TGI (HCC-2998 colon): > 100 µM
- GI50 (SK-MEL-5 melanoma): > 100 µM
- TGI (SK-MEL-5 melanoma): > 100 µM
- GI50 (MDA-MB-468 breast): > 100 µM
- TGI (MDA-MB-468 breast): > 100 µM
- GI50 (NCI/ADR-RES ovarian): > 100 µM
- TGI (NCI/ADR-RES ovarian): > 100 µM
- GI50 (NCI-H522 lung): > 100 µM
- TGI (NCI-H522 lung): > 100 µM
- GI50 (HCT-15 colon): 98.3 µM
- TGI (HCT-15 colon): > 100 µM
- GI50 (M14 melanoma): > 100 µM
- TGI (M14 melanoma): > 100 µM
- GI50 (UACC-257 melanoma): > 100 µM
- TGI (UACC-257 melanoma): > 100 µM
- GI50 (TK-10 renal): > 100 µM
- TGI (TK-10 renal): > 100 µM
- GI50 (HS 578T breast): > 100 µM
- TGI (HS 578T breast): > 100 µM
- GI50 (CCRF-CEM leukemia): > 100 µM
- TGI (CCRF-CEM leukemia): > 100 µM
- GI50 (HT29 colon): > 100 µM
- TGI (HT29 colon): > 100 µM
- GI50 (OVCAR-8 ovarian): > 100 µM
- TGI (OVCAR-8 ovarian): > 100 µM
- GI50 (IGROV1 ovarian): > 91.5 µM
- TGI (IGROV1 ovarian): > 100 µM
- GI50 (SK-OV-3 ovarian): > 100 µM
- TGI (SK-OV-3 ovarian): > 100 µM
- GI50 (COLO 205 colon): > 100 µM
- TGI (COLO 205 colon): > 100 µM
- GI50 (HOP-62 NSCLC): > 100 µM
- TGI (HOP-62 NSCLC): > 100 µM
- GI50 (SR leukemia): > 75.7 µM
- TGI (SR leukemia): > 100 µM
- GI50 (NCI-H23 lung): > 100 µM
- TGI (NCI-H23 lung): > 100 µM
